The source of these data is PubChem BioAssay (NCI).

Where “and” joins values, the source holds several entries; their conditions need not be identical. Equal values may be shown once.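 Following 48 hours of exposure in 96-well plates, responses at five concentrations were used to interpolate endpoints linearly. GI50 = concentration required for 50% inhibition of growth. Definition used: TGI = concentration required for complete inhibition of growth.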 Where a SMILES comes first, the peptide text is derived from it. [ ]: non-standard residue; d: D form. The star is where a group is joined. Dolaproine = CO[C@@H]([C@@H]1CCCN1)[C@@H](C)C(=O)O; Dil = CC[C@H](C)[C@H](NC)[C@@H](CC(=O)O)OC; X2 = C[C@@H](N*)[C@@H](O)c1ccccc1; NMeV = CN[C@H](C(=O)O)C(C)C Where only a bound is given, the exact number is not on record here.

For the experiment, the system named is MDA-MB-468 breast. Briefly: NCI anticancer screen, dose series, 48 h.
For `O=C(C[n+]1cccc2cc(Cl)ccc21)c1ccc2c(c1)CCCC2`, the GI50 was 423 nM and the TGI amounted to 1820 nM.

For `COc1cccc2[nH]c3c4c(c5c(c3c12)C(=O)N(CN1CCN(C)CC1)C5=O)CCC4`, the GI50 was 5150 nM and the TGI was 26600 nM.

Take `CCNC(=O)N1CCc2cc(OC)c(OCCc3ccc(OC)cc3)cc2C1c1ccc(OC)cc1C` (stereo not given): the GI50 was 1930 nM and the TGI is more than 30200 nM.

On to `Cc1ccc(C)c(NC2=C(Cl)C(=O)c3nc(C)ccc3C2=O)c1`, for which the GI50 was 1510 nM and the TGI was determined as 3080 nM.

As to `C[C@@H]1C[C@H]2C(=O)OCC(NC(=O)[C@H](Cc3cc(F)cc(F)c3)NC(=O)Nc3ccc(Cl)cc3F)C(=O)N3CCC[C@H]3C(=O)N3CCCC[C@H]3C(=O)N[C@@H](C)C(=O)N2C1` (stereo not given in full), the GI50 was 1430 nM and 294 nM; the TGI was 18800 nM and 2880 nM.

On to `COc1cc(Nc2ccnc(NCCNc3ccnc4cc(Cl)ccc34)n2)cc(OC)c1`, for which the GI50 is 1040 nM and the TGI stood at 3330 nM.

As for `CN[C@@H](C)C(=O)N[C@H]1CCS[C@H]2CC(C)(C)[C@@H](C(=O)N[C@H]3c4ccccc4C[C@H]3OCC#CC#CCO[C@@H]3Cc4ccccc4[C@@H]3NC(=O)[C@H]3N4C(=O)[C@@H](NC(=O)[C@H](C)NC)CCS[C@H]4CC3(C)C)N2C1=O`, the GI50 was less than 5 nM and the TGI came to 16.4 nM.

As to `O=C(Nc1ncc(Cc2ccccc2)s1)c1sc2ccccc2c1Cl`, the GI50 was 1400 nM and the TGI worked out at 18700 nM.

For the compound `CCCCC(CCCCCC(CCCC)C1NC(C)Cc2cc(OC)c(OC)cc21)C1NC(C)Cc2cc(OC)c(OC)cc21` (stereo not given), the GI50 is 436 nM and the TGI came out at 1880 nM.

Consider `Cc1ccc(S(=O)(=O)c2ccccc2)cc1`, for which the GI50 is 1590 nM and the TGI amounted to 5780 nM.

As for `Clc1ccc(C(Cn2ccnc2)OCc2ccsc2Cl)c(Cl)c1` (stereo not given), the GI50 is 2300 nM and the TGI was 7300 nM.

Turning to `CC1CCCc2sc3nc(NNC(=O)c4cnccn4)n(-c4ccccc4)c(=O)c3c21` (stereo not given), the GI50 is 333 nM and 239 nM; the TGI is 2300 nM and 946 nM.

On to `O=C1/C=C/[C@@H](O)[C@@H]2C[C@@H](O)C[C@H]2/C=C/CCC[C@H](CCOCc2ccccc2)O1`, for which the GI50 is less than 16.1 nM and the TGI amounted to 31.2 nM.

Take `COc1cccc(C2=C(c3cn(C)c4ccc(Cl)cc34)C(=O)NC2=O)c1`: the GI50 was 4170 nM and the TGI worked out at 17100 nM.

As for `CNC(=O)c1ccccc1Nc1cc(Nc2ccc(N3CCOCC3)cc2OC)ncc1C(F)(F)F`, the GI50 was 27800 nM and the TGI is 97800 nM.

In the case of `C=CC(=O)N1CCN(CCCn2c(=O)c(-c3c(Cl)c(OC)cc(OC)c3Cl)cc3cnc(NC)nc32)CC1`, the GI50 is 1240 nM and the TGI came out at 5900 nM.

Regarding `COc1ccc2c(c1)C=CC1(O2)Oc2ccc(OC)cc2C=C1C` (stereo not given), the GI50 was 876 nM and the TGI was more than 100000 nM.

For `CC[C@H](C)[C@H](NC(=O)c1ccccn1)C(=O)N(C)[C@H](C[C@@H](OC(C)=O)c1nc(C(=O)N[C@@H](Cc2ccccc2)C[C@H](C)C(=O)OC)cs1)C(C)C`, the GI50 is 3380 nM and the TGI was 15400 nM.

As for `Nc1ccc(S(=O)(=O)c2ccc(N)cc2)cc1`, the GI50 is more than 100000 nM and the TGI was more than 100000 nM.

As for `O=C(Nc1ccc2[nH]c3ccccc3c2c1)c1ccccc1Cl`, the GI50 is 2860 nM and the TGI amounted to 24900 nM.

Consider `COc1ccc(-c2cn[nH]c2-c2cc(OC)c(OC)c(OC)c2)cc1OCc1ccccc1`, for which the GI50 is 2180 nM and the TGI was determined as 7940 nM.

As to `c1cc[n+](C2c3ccccc3C([n+]3ccccc3)c3ccccc32)cc1` (stereo not given), the GI50 is 1110 nM and the TGI was 4400 nM.

Turning to `COc1cc(/C=C/C(=O)c2ccc(Nc3nc(NCCO)nc(N4CCOCC4)n3)cc2)cc(OC)c1OC`, the GI50 was 1340 nM and the TGI is 3760 nM.

With `COc1cc(C2C3=C(COC3=O)N(CCO)c3cc4c(cc32)OCO4)cc(OC)c1OC` (stereo not given), the GI50 is 242 nM and 344 nM; the TGI was 626 nM and 979 nM.

With `O=C(Cc1n[nH]c(=O)c2ccccc12)OCc1c(Cl)cccc1Cl`, the GI50 is more than 100000 nM and the TGI is more than 100000 nM.

With `Clc1ccc2c(N3CCN(c4ccnc(NC5CCCCC5)n4)CC3)ccnc2c1`, the GI50 is 1640 nM and the TGI turned out to be 3600 nM.

With `CSc1nc(-c2cc3ccccc3o2)cc(-c2ccc(Cl)cc2)c1C#N`, the GI50 is 21800 nM and the TGI was more than 100000 nM.

Consider `C[C@]12CC[C@@H]3c4ccc(O)cc4CC[C@H]3[C@@H]1CC[C@@H]2NS(=O)(=O)c1ccc(Cl)cc1`, for which the GI50 is 4940 nM and the TGI worked out at 17300 nM.

`COC1=C(OC)C(=O)C(CCCCCCCCCC[P+](c2ccccc2)(c2ccccc2)c2ccccc2)=C(C)C1=O`: the GI50 is 66.8 nM and the TGI came out at 694 nM.

On to `NC(N)=NN=C(c1ccccc1)c1ccccc1`, for which the GI50 was 2200 nM and the TGI was 12200 nM.

With `CC[N+](CC)=c1cc2oc3cc(N(C)C)ccc3nc-2cc1C`, the GI50 was 1330 nM and the TGI stood at 4390 nM.

Consider `Nc1n[nH]c2cccc(C#Cc3cccc(NC(=O)c4ccc(N5CCOCC5)c(C(F)(F)F)c4)c3)c12`, for which the GI50 was 2280 nM and the TGI came to 6820 nM.

As for `CCOc1cc(F)c([N+](=O)[O-])cc1[N+](=O)[O-]`, the GI50 is 1860 nM and the TGI turned out to be 3510 nM.

Turning to `COc1ccc(/C(C)=C(\c2ccc(Cl)cc2)c2ccc(OCCN3CCCCC3)cc2)cc1`, the GI50 was 3670 nM and the TGI is 8030 nM.

As to `CC[C@H](C)[C@@H]([C@@H](CC(=O)N1CCC[C@H]1[C@H](OC)[C@@H](C)C(=O)N[C@H](C)[C@@H](O)c1ccccc1)OC)N(C)C(=O)[C@@H](NC(=O)[C@@H](NC)C(C)C)C(C)C` (H-[NMeV]V[Dil][Dolaproine]-X2), the GI50 was less than 5 nM and the TGI was more than 57100 nM.

For the compound `O=C1/C(=C/c2ccccc2)CN(C(=O)CCN2CCC(=NO)CC2)C/C1=C\c1ccccc1`, the GI50 is 1740 nM and the TGI turned out to be 4250 nM.

For the compound `COc1ccc2cc(C#Cc3ccc(-n4c(/C=C/c5cc(OC)c(OC)c(OC)c5)nc5ccccc5c4=O)c(C)c3)ccc2c1`, the GI50 is 3800 nM and the TGI was more than 100000 nM.

Regarding `N#CC1(Nc2ccc(Br)cc2)CCCC1`, the GI50 was more than 100000 nM and the TGI was more than 100000 nM.

For `O=C1Nc2ccccc2/C1=C\c1c(-c2ccccc2)nc2ccccn12`, the GI50 was 2100 nM and the TGI came to 6670 nM.

In the case of `Cc1nc2ccccc2nc1NNc1ccccc1`, the GI50 is 10300 nM and the TGI was found to be 58000 nM.
